Experimental findings from US11555012B2 (Nimbus Artemis, Inc., priority 2018, dated 2023) are described below.

Test [1] deals with T1, ACL (Homo sapiens (Human), UniProt P53396). Description: ADP-Glo Assay.
Target sequence in this assay (P53396 other isoform, or with tags, fused parts or gaps isoform P53396-2): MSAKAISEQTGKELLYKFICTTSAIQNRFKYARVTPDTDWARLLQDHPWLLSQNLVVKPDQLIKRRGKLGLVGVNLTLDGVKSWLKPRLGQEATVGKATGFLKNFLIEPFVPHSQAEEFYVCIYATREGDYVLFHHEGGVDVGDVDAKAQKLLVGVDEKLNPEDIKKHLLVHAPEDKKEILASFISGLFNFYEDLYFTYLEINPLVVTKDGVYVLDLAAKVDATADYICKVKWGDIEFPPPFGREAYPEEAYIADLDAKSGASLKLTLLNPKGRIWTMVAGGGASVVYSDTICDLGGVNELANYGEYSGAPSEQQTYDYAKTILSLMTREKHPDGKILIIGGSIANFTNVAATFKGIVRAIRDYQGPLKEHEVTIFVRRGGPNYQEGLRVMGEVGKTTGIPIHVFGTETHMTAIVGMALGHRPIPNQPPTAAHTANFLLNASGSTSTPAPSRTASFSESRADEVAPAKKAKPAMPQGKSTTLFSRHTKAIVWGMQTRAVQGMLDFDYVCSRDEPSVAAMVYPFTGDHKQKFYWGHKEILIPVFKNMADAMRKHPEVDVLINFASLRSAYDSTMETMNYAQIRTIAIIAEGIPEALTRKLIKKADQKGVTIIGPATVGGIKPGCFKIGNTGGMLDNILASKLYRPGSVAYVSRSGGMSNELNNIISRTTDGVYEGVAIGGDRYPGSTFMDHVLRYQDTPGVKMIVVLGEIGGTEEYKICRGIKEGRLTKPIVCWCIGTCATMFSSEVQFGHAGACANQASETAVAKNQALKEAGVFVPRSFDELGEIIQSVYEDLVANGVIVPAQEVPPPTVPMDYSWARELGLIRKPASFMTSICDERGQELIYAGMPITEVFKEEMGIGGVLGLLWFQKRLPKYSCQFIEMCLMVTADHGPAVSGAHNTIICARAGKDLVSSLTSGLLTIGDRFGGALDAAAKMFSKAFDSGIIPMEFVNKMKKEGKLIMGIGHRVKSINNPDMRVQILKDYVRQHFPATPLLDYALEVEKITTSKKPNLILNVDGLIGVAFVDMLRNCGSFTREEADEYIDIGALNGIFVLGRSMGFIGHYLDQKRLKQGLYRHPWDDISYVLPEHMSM
The target in test [2] is T1, ACL. Description: ACLY-MDH Coupled Assay.
Target sequence in this assay (P53396 whole entry, species assumed): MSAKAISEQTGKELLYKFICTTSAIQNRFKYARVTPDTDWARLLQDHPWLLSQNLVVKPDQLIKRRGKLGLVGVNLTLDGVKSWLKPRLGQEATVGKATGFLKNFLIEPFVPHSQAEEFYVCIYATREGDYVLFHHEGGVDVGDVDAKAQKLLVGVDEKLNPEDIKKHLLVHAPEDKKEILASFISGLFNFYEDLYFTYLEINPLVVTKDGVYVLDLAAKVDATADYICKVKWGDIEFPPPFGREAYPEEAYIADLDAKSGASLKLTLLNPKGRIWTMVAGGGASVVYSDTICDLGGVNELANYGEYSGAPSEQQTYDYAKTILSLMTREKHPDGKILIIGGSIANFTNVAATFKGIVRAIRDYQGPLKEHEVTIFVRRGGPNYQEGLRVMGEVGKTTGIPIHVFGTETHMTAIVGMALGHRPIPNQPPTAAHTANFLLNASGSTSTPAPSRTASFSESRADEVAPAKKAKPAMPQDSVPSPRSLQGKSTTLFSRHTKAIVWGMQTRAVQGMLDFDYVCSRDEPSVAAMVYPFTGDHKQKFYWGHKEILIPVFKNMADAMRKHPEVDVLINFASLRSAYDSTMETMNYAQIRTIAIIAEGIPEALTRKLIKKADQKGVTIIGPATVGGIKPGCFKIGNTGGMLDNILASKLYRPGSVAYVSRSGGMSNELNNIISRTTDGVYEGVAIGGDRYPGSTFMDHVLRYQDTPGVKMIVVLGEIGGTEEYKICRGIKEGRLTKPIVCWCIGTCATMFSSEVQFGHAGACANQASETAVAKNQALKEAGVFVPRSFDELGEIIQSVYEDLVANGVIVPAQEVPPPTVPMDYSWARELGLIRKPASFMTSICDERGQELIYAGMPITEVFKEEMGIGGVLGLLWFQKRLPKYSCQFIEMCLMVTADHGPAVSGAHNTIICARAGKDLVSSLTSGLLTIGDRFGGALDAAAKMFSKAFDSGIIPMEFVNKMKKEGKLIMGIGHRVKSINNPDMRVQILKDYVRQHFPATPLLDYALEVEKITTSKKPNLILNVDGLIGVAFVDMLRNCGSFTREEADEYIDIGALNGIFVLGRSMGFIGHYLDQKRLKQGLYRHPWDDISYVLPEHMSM
Description: Compounds of the present invention were evaluated in an ACLY Coupled Assay.
The assay protocol for the Coupled Assay (below) was followed:
b) Add 1 μL cpds to 96 assay plate, Test cpd conc: 100/30/10 μM top dose, 3 folds dilution, 10+0+control (control: buffer without ACL+DMSO) points, 1000 rpm for 1 min, incubation at 25° C. for 60 min
[3] abbreviates: read-out: ACL-ADP-Glo (IC50), 3 nM ACL, 15 μM ATP, 3 μM CoA, 300 μM Citrate.
[4] abbreviates: read-out: ACL-MDH Coupled Assay (IC50), 8 nM ACL, 60 μM CoA Na2, 85 μM Citrate, 250 μM ATP, 250 μM NADH.

For `CO[C@H]1CCN(C(=O)c2cc(Cl)c(O)c(S(=O)(=O)Nc3cc(-c4ccccc4)ccc3F)c2)C1` [I-142, 3-chloro-N-[4-fluoro-[1,1-biphenyl]-3-yl]-2-hydroxy-5-[(3S)-3-methoxypyrrolidine-1-carbonyl]benzene-1-sulfonamide], the IC50 on ACL [1] (setting [3]) and at ACL [2] (setting [4]) was < 50 nM throughout.
In the case of `O=C(c1cc(Cl)c(O)c(S(=O)(=O)N(C(=O)C2CC2)c2cc(-c3ccccc3)c(F)cc2F)c1)N1CCC1` [I-229, N-((5-(azetidine-1-carbonyl)-3-chloro-2-hydroxyphenyl)sulfonyl)-N-(4,6-difluoro-[1,1′-biphenyl]-3-yl)cyclopropanecarboxamide], the IC50 on ACL [1] (setting [3]) was < 50 nM; at ACL [2], 50 to 500 nM.
With `COc1cc(Br)ccc1NS(=O)(=O)c1cc(Cl)cc(Cl)c1O` [I-11, N-(4-bromo-2-methoxyphenyl)-3,5-dichloro-2-hydroxybenzenesulfonamide], the IC50 at ACL [1] was 500 to 20000 nM; against ACL [2], 500 to 30000 nM.
For `O=C(c1cc(Cl)c(O)c(S(=O)(=O)Nc2cc(-c3cccnc3)c(F)cc2F)c1)N1CCC1` [I-197, 5-(azetidine-1-carbonyl)-3-chloro-N-[2,4-difluoro-5-(pyridin-3-yl)phenyl]-2-hydroxybenzene-1-sulfonamide], in that order: 50 to 500 nM and 500 to 30000 nM.
For `CC(C)(C)C1CCN(S(=O)(=O)Nc2cc(-c3ccccc3)ccc2C(=O)O)CC1` [I-327], in that order: 500 to 20000 nM and 500 to 30000 nM.
Regarding `O=c1[nH]cc(Cl)cc1S(=O)(=O)Nc1cc(-c2ccccc2)c(F)cc1F` [I-326, 5-chloro-N-(4,6-difluoro-[1,1′-biphenyl]-3-yl)-2-oxo-1,2-dihydropyridine-3-sulfonamide], the IC50 on ACL [1] (setting [3]) and on ACL [2] (setting [4]) was 50 to 500 nM throughout.
For the molecule `O=C(c1cc(Cl)c(O)c(S(=O)(=O)Nc2cc(-c3ccccn3)ccc2F)c1)N1CCC1` [I-206, 5-(azetidine-1-carbonyl)-3-chloro-N-[2-fluoro-5-(pyridin-2-yl)phenyl]-2-hydroxybenzene-1-sulfonamide], the IC50 against ACL [1] and on ACL [2] was 50 to 500 nM throughout.
Consider `O=C(O)c1ccc(-c2ccccc2)cc1NS(=O)(=O)c1cc(Br)cc(C(F)(F)F)c1` [I-306, 3-((3-bromo-5-(trifluoromethyl)phenyl)sulfonamido)-[1,1′-biphenyl]-4-carboxylic acid], for which the IC50 on ACL [1] and at ACL [2] was 50 to 500 nM throughout.
As for `O=C(c1cc(Cl)c(O)c(S(=O)(=O)Cc2cc(-c3ccccc3)c(F)cc2F)c1)N1CCCC1` [I-211, (3-chloro-5-(((4,6-difluoro-[1,1′-biphenyl]-3-yl)methyl)sulfonyl)-4-hydroxyphenyl)(pyrrolidin-1-yl)methanone], the IC50 at ACL [1] fell in the range of 500 to 20000 nM; at ACL [2], 500 to 30000 nM.
For `COc1ccc(-c2cccnc2)cc1NS(=O)(=O)c1cc(C(=O)N2CCC2)cc(Cl)c1O` [I-144, 5-(azetidine-1-carbonyl)-3-chloro-2-hydroxy-N-[2-methoxy-5-(pyridin-3-yl)phenyl]benzene-1-sulfonamide], in that order: 50 to 500 nM and 500 to 30000 nM.
For `O=C(c1cc(Cl)c(O)c(S(=O)(=O)Nc2cc(-c3ccccc3)ncc2F)c1)N1CCC1` [I-222, 5-(azetidine-1-carbonyl)-3-chloro-N-(5-fluoro-2-phenylpyridin-4-yl)-2-hydroxybenzene-1-sulfonamide] the same measures were 50 to 500 nM and 500 to 30000 nM.
For `COc1c(Cl)cc(C(=O)O)cc1S(=O)(=O)Nc1cc(-c2ccccc2)c(F)cc1F` [I-62, 3-chloro-5-[(2,4-difluoro-5-phenylphenyl)sulfamoyl]-4-methoxybenzoic Acid] the same measures were 500 to 20000 nM and 500 to 30000 nM.
On to `O=C(O)c1ccc(-c2ccccc2)cc1NS(=O)(=O)c1ccnn1CCc1ccccc1` [I-330], for which the values for the IC50 against ACL [1] and at ACL [2] were 500 to 20000 nM and 500 to 30000 nM, respectively.
For `O=C(O)c1ccc(-c2ccccc2)cc1NS(=O)(=O)c1c(Cl)nc2ccc(Br)cn12` [I-334], in that order: 500 to 20000 nM and 500 to 30000 nM.
For `COc1cc(F)c(-c2cc3ccccc3s2)cc1NS(=O)(=O)c1cc(C(=O)O)cc(Cl)c1O` [I-510] the same measures were 500 to 20000 nM and 500 to 30000 nM.
For `O=C(O)c1cc(Cl)c(O)c(S(=O)(=O)Nc2cc(-c3cc4ccccc4s3)c(F)cc2OC(F)(F)F)c1` [I-508, 3-(N-(5-(benzo[b]thiophen-2-yl)-4-fluoro-2-(trifluoromethoxy)phenyl)sulfamoyl)-5-chloro-4-hydroxybenzoic Acid] the same measures were 50 to 500 nM and 500 to 30000 nM.
As to `O=C(c1cc(Cl)c(O)c(S(=O)(=O)Nc2cc(C3CC3)c(F)cc2F)c1)N1CCCC1` [I-193, 3-chloro-N-(5-cyclopropyl-2,4-difluorophenyl)-2-hydroxy-5-(pyrrolidine-1-carbonyl)benzene-1-sulfonamide], the values for the IC50 at ACL [1] and on ACL [2] were 500 to 20000 nM and 500 to 30000 nM, respectively.
For `O=C(O)c1cc(-c2ccccc2)sc1NS(=O)(=O)c1cc(Cl)cc(Cl)c1` [I-242, 2-((3,5-dichlorophenyl)sulfonamido)-5-phenylthiophene-3-carboxylic Acid], in that order: 500 to 20000 nM and 500 to 30000 nM.
For `N#Cc1cc(Cl)cc(S(=O)(=O)Nc2cc(-c3cc4ccccc4s3)c(F)cc2F)c1` [I-203, N-(5-(benzo[b]thiophen-2-yl)-2,4-difluorophenyl)-3-chloro-5-cyanobenzenesulfonamide] the same measures were 500 to 20000 nM and > 30000 nM.
For `O=C(O)c1ccc(-c2ccccc2)cc1NS(=O)(=O)c1cc(Cl)sc1Cl` [I-331] the same measures were 500 to 20000 nM and 500 to 30000 nM.
As for `O=C(O)c1ccc(-c2ccccc2)cc1NS(=O)(=O)c1cc(Cl)cc(Cl)c1O` [I-249, 3-((3,5-dichloro-2-hydroxyphenyl)sulfonamido)-[1,1′-biphenyl]-4-carboxylic acid], the values for the IC50 against ACL [1] and at ACL [2] were 500 to 20000 nM and 500 to 30000 nM, respectively.
For `O=S(=O)(Nc1cc(-c2ccccc2)ccc1O)c1cc(Cl)cc(Cl)c1O` [I-28, 3,5-dichloro-2-hydroxy-N-(2-hydroxy-5-phenylphenyl) benzene-1-sulfonamide] the same measures were 500 to 20000 nM and 50 to 500 nM.
For `O=C(O)c1ccc(-c2ccccc2)cc1NS(=O)(=O)c1cc(Cl)c(Cl)s1` [I-311, 3-((4,5-dichlorothiophene)-2-sulfonamido)-[1,1′-biphenyl]-4-carboxylic acid], in that order: 500 to 20000 nM and 500 to 30000 nM.
For `O=C(O)COc1c(Br)cc(Cl)cc1S(=O)(=O)Nc1cc(-c2ccccc2)ccc1F` [I-46, 2-(2-bromo-4-chloro-6-(N-(4-fluoro-[1,1′-biphenyl]-3-yl)sulfamoyl)phenoxy)acetic Acid], in that order: 500 to 20000 nM and 500 to 30000 nM.
Take `COC(=O)c1cc(Cl)c(OC)c(S(=O)(=O)Nc2cc(-c3ccccc3)ccc2F)c1` [I-49, Methyl 3-chloro-5-(N-(4-fluoro-[1,1′-biphenyl]-3-yl)sulfamoyl)-4-methoxybenzoate]: the concentration for half-maximal inhibition (IC50) against ACL [1] was in the range of 500 to 20000 nM; against ACL [2] it was 500 to 30000 nM.
For `CN(C(=O)c1cc(Cl)cc(Cl)c1)c1cc(-c2ccccc2)ccc1C(=O)O` [I-347, 3-(3,5-dichloro-N-methylbenzamido)-[1,1′-biphenyl]-4-carboxylic Acid], in that order: 500 to 20000 nM and 500 to 30000 nM.
With `CCN(c1ccc(Cl)cc1)S(=O)(=O)c1cc(Br)cc(Cl)c1O` [I-513, 5-bromo-3-chloro-N-(4-chlorophenyl)-N-ethyl-2-hydroxybenzene Sulfonamide], the figures for the IC50 against ACL [1] and on ACL [2] were 500 to 20000 nM and 500 to 30000 nM, respectively.
For `COc1ccc(-c2ccccc2)cc1NS(=O)(=O)c1cc(C(=O)N(C)C)cc(Cl)c1O` [I-56, 3-chloro-4-hydroxy-5-[(2-methoxy-5-phenylphenyl)sulfamoyl]-N,N-dimethylbenzamide], in that order: 50 to 500 nM and 50 to 500 nM.
As to `COC(=O)Cc1cc(Cl)c(O)c(S(=O)(=O)Nc2cc(-c3ccccc3)ccc2OC)c1` [I-94, Methyl 2-[3-chloro-4-hydroxy-5-[(2-methoxy-5-phenylphenyl)sulfamoyl]phenyl]acetate], the results for the IC50 on ACL [1] and at ACL [2] were 500 to 20000 nM and 500 to 30000 nM, respectively.
As to `O=C(O)COc1c(Cl)cc(Cl)cc1S(=O)(=O)Nc1cc(-c2ccccc2)ccc1F` [I-143], the IC50 against ACL [1] lay within 500 to 20000 nM; against ACL [2] it was 500 to 30000 nM.
With `O=c1[nH]cc(C(F)(F)F)cc1S(=O)(=O)Nc1cc(-c2ccccc2)ccc1F` [I-355, N-[4-fluoro-[1,1-biphenyl]-3-yl]-2-oxo-5-(trifluoromethyl)-1,2-dihydropyridine-3-sulfonamide], the IC50 on ACL [1] was in the range of 50 to 500 nM; against ACL [2] it was 500 to 30000 nM.
For `O=C(O)c1ccc(-c2ccccc2)cc1NS(=O)(=O)c1ccccc1-c1ccno1` [I-336] the same measures were 500 to 20000 nM and 500 to 30000 nM.
For `O=C(O)c1cc(Cl)c(O)c(S(=O)(=O)Nc2cc(-c3ccccc3)ccc2F)c1` [I-107, 3-chloro-5-[(2-fluoro-5-phenylphenyl)sulfamoyl]-4-hydroxybenzoic Acid] the same measures were 500 to 20000 nM and 500 to 30000 nM.
As for `O=C(O)c1ccc(-c2ccccc2)cc1NS(=O)(=O)c1cccc2nonc12` [I-339], the figures for the IC50 against ACL [1] and against ACL [2] were 500 to 20000 nM and 500 to 30000 nM, respectively.
For the molecule `O=C(c1cc(Cl)c(O)c(S(=O)(=O)Nc2cc(-c3ccccc3)c(F)cc2F)c1)N1CC[C@H](F)C1` [I-118, (S)-3-chloro-N-(4,6-difluoro-[1,1′-biphenyl]-3-yl)-5-(3-fluoropyrrolidin-1-carbonyl)-2-hydroxybenzenesulfonamide], the IC50 on ACL [1] (setting [3]) was < 50 nM; against ACL [2], 50 to 500 nM.
Take `O=S(=O)(c1cc(Br)cc(Cl)c1O)N(Cc1cncs1)c1ccc(Cl)cc1` [I-514, 5-bromo-3-chloro-N-(4-chlorophenyl)-2-hydroxy-N-(thiazol-5-ylmethyl)benzenesulfonamide]: the figures for the IC50 against ACL [1] and at ACL [2] were 500 to 20000 nM and 500 to 30000 nM, respectively.
